# Experimental data reported in patent publication EP4782453A1 (Beyang Therapeutics Co., Ltd., priority 2023, dated 2025).
# Where two headings read alike, the source gives them in different places.
# Molecular target: T1, Menin-MLL (Homo sapiens, UniProt O00255)
# T1 construct: His-Menin (M1-L615 end); purchased BIORTUS BP9210
# T1 sequence (O00255 1-615 isoform O00255-1): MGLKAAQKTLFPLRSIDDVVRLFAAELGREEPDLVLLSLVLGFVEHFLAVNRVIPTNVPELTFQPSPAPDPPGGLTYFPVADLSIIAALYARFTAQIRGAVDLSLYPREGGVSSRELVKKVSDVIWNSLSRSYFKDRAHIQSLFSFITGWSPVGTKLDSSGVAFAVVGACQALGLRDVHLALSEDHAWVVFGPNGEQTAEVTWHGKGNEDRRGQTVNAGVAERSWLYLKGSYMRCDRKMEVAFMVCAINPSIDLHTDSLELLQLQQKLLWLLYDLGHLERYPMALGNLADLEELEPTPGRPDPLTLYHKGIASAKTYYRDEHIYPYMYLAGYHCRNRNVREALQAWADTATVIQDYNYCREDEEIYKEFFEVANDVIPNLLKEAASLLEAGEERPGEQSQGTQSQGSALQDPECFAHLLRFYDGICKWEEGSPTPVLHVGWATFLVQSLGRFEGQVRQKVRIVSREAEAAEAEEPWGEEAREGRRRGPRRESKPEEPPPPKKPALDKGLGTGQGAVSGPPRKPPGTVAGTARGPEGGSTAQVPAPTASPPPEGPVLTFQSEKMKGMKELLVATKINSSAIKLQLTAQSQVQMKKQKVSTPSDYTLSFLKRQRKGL
# Assay: Inhibitory activity against Menin-MLL binding (fluorescence polarization)
# Details: 150 nM His-Menin, 15 nM FITC-MLL, 25°C for 60 min
# Method in brief: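 Fluorescence polarization competition: compound and 150 nM His-tagged menin (residues M1-L615) sit 15 min at 25 °C in pH 7.5 HEPES buffer with NaCl, DTT and BSA; 15 nM FITC-labelled MLL peptide then binds for 60 min. IC50 fitted sigmoidally from mP values, duplicate wells.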
# [1] = fluorescence polarization, read-out: Menin-MLL IC50
IC50 [1] [nM],Structure (SMILES),"IC50 (Menin-MLL IC50, fluorescence polarization) [nM]"
270,CCN(C(=O)c1cc(F)ccc1-c1nc(C2CN([C@H](CCCN3CCN(CCC#N)CC3)C(C)C)C2)cn2c(C)ncc12)C(C)C [Example 492],
5,CCN(C(=O)c1cc(F)ccc1-c1cc(C2CN([C@H](CCCN3CCN(CCC#N)C(=O)C3)C(C)C)C2)cn2c(C)ncc12)C(C)C [Example 493],
4.1,CCN(C(=O)c1cc(F)ccc1-c1cc(C2CN([C@H](CCCN3CCNC(=O)C3)C(C)C)C2)cn2c(C)ncc12)C(C)C [Example 494],
3.8,CCN(C(=O)c1cc(F)ccc1-c1cc(C2CN([C@H](CCCN3CCN(CCOC)C(=O)C3)C(C)C)C2)cn2c(C)ncc12)C(C)C [Example 496],
2.2,CCN(C(=O)c1cc(F)ccc1-c1cc(C2CN([C@H](CCCN3CCN[C@@H](CF)C3)C(C)C)C2)cn2c(C)ncc12)C(C)C [Example 500],
1.6,CCN(C(=O)c1cc(F)ccc1-c1cc(C2CN([C@H](CCCN3CCN[C@H](CF)C3)C(C)C)C2)cn2c(C)ncc12)C(C)C [Example 501],
17,"COC[C@H]1CN(CCC[C@@H](C(C)C)N2CC(c3cc(-c4ccc(F)cc4C(=O)N(C(C)C)C(C)C)c4cnc(C)n4c3)C2)CCN1 [Example 504-1, 5-fluoro-2-(6-{1-[(3S)-6-[(3R)-3-(methoxymethyl)piperazin-1-yl]-2-methylhexan-3-yl]azacyclobutan-3-yl}-3-methylimidazo[1,5-a]pyridin-8-yl)-N,N-di(isopropyl)benzamide]",
22,COC[C@@H]1CN(CCC[C@@H](C(C)C)N2CC(c3cc(-c4ccc(F)cc4C(=O)N(C(C)C)C(C)C)c4cnc(C)n4c3)C2)CCN1 [Example 505-1],

# The remaining lines, values behind:
Structure (SMILES),IC50 [1] [nM],"IC50 (Menin-MLL IC50, fluorescence polarization) [nM]"
"CCN(C(=O)c1cc(F)ccc1-c1cc(C2CN([C@H](CCCN3CCN(C4(C(=O)N(C)C)COC4)CC3)C(C)C)C2)cn2c(C)ncc12)C(C)C [Example 476, 3-{4-[(4R)-4-[3-(8-{2-[ethyl(isopropyl)aminoformyl]-4-fluorophenyl}-3-methylimidazo[1,5-a]pyridin-6-yl)azacyclobutan-1-yl]-5-methylhexyl]piperazin-1-yl}-N,N-dimethyloxacyclobutan-3-formamide]",1.9,
"Cc1cncc2c(-c3ccc(F)cc3C(=O)N(C)C(C)C)cc(CC3CN([C@@H](CCCN4CCN(CCO)CC4)C(C)C)C3)n12 [Example 477-2, 5-fluoro-2-[6-({1-[(3S)-6-[4-(2-hydroxylethyl)piperazin-1-yl]-2-methylhexan-3-yl]azacyclobutan-3-yl}methyl)-4-methylpyrrolo[1,2-a]pyrazin-8-yl]-N-methyl-N-(isopropyl)benzamide]",27,
CCN(C(=O)c1cc(F)ccc1-c1cc(C2CN([C@H](CCCN3CC4COCC(C3)N4C(=O)OC(C)(C)C)C(C)C)C2)cn2c(C)ncc12)C(C)C [Example 478],1.1,
"CCN(C(=O)c1cc(F)ccc1-c1cc(C2CN([C@H](CCCN3CCNC4(COC4)C3)C(C)C)C2)cn2c(C)ncc12)C(C)C [Example 483, N-ethyl-5-fluoro-2-(3-methyl-6-{1-[(3R)-2-methyl-6-{2-oxa-5,8-diazaspiro[3.5]non-8-yl}hexan-3-yl]azacyclobutan-3-yl}imidazo[1,5-a]pyridin-8-yl)-N-(isopropyl)benzamide]",19,
"CCN(C(=O)c1cc(F)ccc1-c1cc(C2CN([C@H](CCCN3CCN4C(=O)OCC4(CO)C3)C(C)C)C2)cn2c(C)ncc12)C(C)C (stereo partly drawn) [Example 484, 2-(6-{1-[(3R)-6-[8^a-(hydroxymethyl)-3-oxo-hexahydro-1H-[1,3]oxazolo[3,4-a]pyrazin-7-yl]-2-methylhexan-3-yl]azacyclobutan-3-yl}-3-methylimidazo[1,5-a]pyridin-8-yl)-N-ethyl-5-fluoro-N-(isopropyl)benzamide]",,4.2
"CCN(C(=O)c1cc(F)ccc1-c1cc(C2CN(C(CCCN3C[C@H]4C[C@@H]3CO4)C3(C)COC3)C2)cn2c(C)ncc12)C(C)C (stereo partly drawn) [Example 485, N-ethyl-5-fluoro-2-(3-methyl-6-{1-[1-(3-methyloxacyclobutan-3-yl)-4-[(1R,4R)-2-oxa-5-azabicyclo[2.2.1]heptan-5-yl]butyl]azacyclobut-3-yl}imidazo[1,5-a]pyridin-8-yl)-N-(isopropyl)benzamide]",42,
"CCN(C(=O)c1cc(F)ccc1-c1cc(C2CN([C@H](CCCN3CCN(CCO)C(=O)C3)C(C)C)C2)cn2c(C)ncc12)C(C)C [Example 486, N-ethyl-5-fluoro-2-(6-{1-[(3R)-6-[4-(2-hydroxyethyl)-3-oxopiperazin-1-yl]-2-methylhexan-3-yl]azacyclobutan-3-yl}-3-methylimidazo[1,5-a]pyridin-8-yl)-N-(isopropyl)benzamide]",4.2,
"CCN(C(=O)c1cc(F)ccc1-c1cc(C2CN([C@H](CCCN3CCN(C4(C#N)COC4)CC3)C(C)C)C2)cn2c(C)ncc12)C(C)C [Example 487, 2-(6-{1-[(3R)-6-[4-(3-cyanooxacyclobutan-3-yl)piperazin-1-yl]-2-methylhexan-3-yl]azacyclobutan-3-yl}-3-methylimidazo[1,5-a]pyridin-8-yl)-N-ethyl-5-fluoro-N-(isopropyl)benzamide]",2.2,
"CCN(C(=O)c1cc(F)ccc1-c1cc(C2CN([C@H](CCCN3CCN(C4(CC#N)COC4)CC3)C(C)C)C2)cn2c(C)ncc12)C(C)C [Example 490, 2-(6-{1-[(3R)-6-{4-[3-(cyanomethyl)oxacyclobutan-3-yl]piperazin-1-yl}-2-methylhexan-3-yl]azacyclobutan-3-yl}-3-methylimidazo[1,5-a]pyridin-8-yl)-N-ethyl-5-fluoro-N-(isopropyl)benzamide]",2.9,
"CCN(C(=O)c1cc(F)ccc1-c1nc(C2CN(C(CCCN3CCN(CCO)CC3)C(C)C)C2)cn2c(C)ncc12)C(C)C (stereo not drawn) [Example 491, N-ethyl-5-fluoro-2-[6-(1-{6-[4-(2-hydroxyethyl)piperazin-1-yl]-2-methylhexan-3-yl}azacyclobutan-3-yl)-3-methylimidazo[1,5-a]pyrazin-8-yl]-N-(isopropyl)benzamide]",130,
